Earlier results as cited in US20050226908A1, “Efficacious composition of a benzimidazole, an avermectin and praziquantel and related methods of use” (Akzo Nobel N.V., priority 2004, published 2005).

Tested on: parasites
Conditions: fenbendazole alone, one time treatment at 100 or 150 mg/kg; JAVMA 180, 1:53 (1982) and Am J Vet Res 39, 11:1799 (1978)

In the case of `COC(=O)Nc1nc2ccc(Sc3ccccc3)cc2[nH]1` [fenbendazole], the “Efficacy of one time treatment” value is given as “not efficacious”.
